Assay results published in ChEMBL document CHEMBL1146291, “Structure-activity delineation of quinones related to the biologically active Calothrixin B” (Bioorg Med Chem Lett, 2007).

How the values were obtained:
[1] = Cytotoxicity against CV1 cells by MTT assay; format: cell-based; details: Chlorocebus aethiops, CV-1
P388 = test: Cytotoxicity against mouse P388 cells by MTT assay; format: functional, cell-based
HeLa = test: Cytotoxicity against human HeLa cells by MTT assay; format: functional, cell-based

Row | SMILES | EC50 [1] [µM] | EC50 (P388) [µM] | EC50 (HeLa) [µM]
1 | CC1=CC(=O)c2[nH]c3ccccc3c2C1=O [MURRAYAQUINONE A] | 10 | 2.3 | 13
2 | CC1=CC(=O)c2c([nH]c3ccccc23)C1=O | 1.7 | 1 | 7
3 | O=C1c2[nH]c3ccccc3c2C(=O)c2ccc3ccccc3c21 | > 50 | > 50 | 1.5
4 | O=C1c2ccccc2C(=O)c2c1[nH]c1ccccc21 [BENZOCARBAZOLEDIONE] | > 50 | > 50 | 1.8
5 | O=C1C=CC(=O)c2c1[nH]c1ccccc21 | > 50 | > 50 | > 50
6 | O=C1c2[nH]c3ccccc3c2C(=O)c2cnc3ccccc3c21 [CALOTHRIXIN B] | 2.4 | 9 | 0.25
